Measurements reported in patent US12083102B2, “Method for treating inflammatory disorders” (DIMERIX BIOSCIENCE PTY LTD, priority 2011, dated 2024).
Entries after “also recorded” stand apart in the source; their conditions may differ.

How the values were obtained:
monocytes = details: Yokochi (2001); cited from earlier work
MCP-1 = details: Yokochi (2001); Yamada (2004); cited from earlier work
[1] = system: mouse models of multiple sclerosis, renal ischemia-reperfusion injury, ureter obstruction, diabetic nephropathy; rat model of arthritis; details: Tesch (2008); cited from earlier work
AT1R-Rluc8 [2] = target: T1, AT1R-Rluc8 (Homo sapiens, UniProt P30556); type: cell-based; details: HEK293FT cells; antagonist 10 μM; 100 nM AngII; FIG. 5 middle
T1 construct: expressed in transfected cells; host or cells: HEK293FT
T1 sequence (P30556 1-359): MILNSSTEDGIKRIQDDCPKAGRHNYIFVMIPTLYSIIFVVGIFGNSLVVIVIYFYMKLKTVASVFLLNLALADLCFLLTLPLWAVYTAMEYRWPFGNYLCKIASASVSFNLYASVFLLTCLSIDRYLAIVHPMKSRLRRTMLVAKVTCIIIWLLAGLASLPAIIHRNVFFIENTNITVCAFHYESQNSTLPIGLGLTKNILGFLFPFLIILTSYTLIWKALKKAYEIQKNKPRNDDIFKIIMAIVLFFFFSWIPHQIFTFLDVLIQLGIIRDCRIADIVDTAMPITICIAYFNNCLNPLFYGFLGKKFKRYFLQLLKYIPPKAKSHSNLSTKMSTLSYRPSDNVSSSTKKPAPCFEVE

[3] = target: T2, AT1R-Rluc8 and the untagged CCR2 (Homo sapiens, UniProt P30556+P41597); type: cell-based; details: HEK293FT cells, FIG. 5 bottom; for MCP-1-induced BRET, AT1R-Rluc8, β-arrestin2-Venus and untagged CCR2: 100 nM MCP-1
T2 construct: expressed in transfected cells; host or cells: HEK293FT
From the text: (§3) Data represent mean±SEM of three independent experiments performed in triplicate.
HEK293FT cells were transiently transfected with plasmids coding for β-arrestin2-Venus and the indicated receptors: CCR2-Rluc8 (top panel), AT1R-Rluc8 (middle panel) or AT1R-Rluc8 and the untagged CCR2 (bottom panel).

AT1R-Rluc8 [4] = target: T1, AT1R-Rluc8; assay: Inositol phosphate (IP1) production (Example 4, top panel); type: cell-based; details: HEK293FT cells; antagonist 10 μM; 100 nM AngII; no CCR2; FIG. 6 top
AT1R-Rluc8 and CCR2 [5] = target: T3, AT1R-Rluc8 and CCR2 (Homo sapiens, UniProt P30556+P41597); assay: Inositol phosphate (IP1) production (Example 4, bottom panel); type: cell-based; details: HEK293FT cells, FIG. 6 bottom; for AngII-induced IP1 production, cells co-expressing AT1R-Rluc8 and CCR2 / MCP-1-induced IP1 production, cells co-expressing AT1R-Rluc8 and CCR2: antagonist 10 μM; for AngII-induced IP1 production, cells co-expressing AT1R-Rluc8 and CCR2: 100 nM AngII; for MCP-1-induced IP1 production, cells co-expressing AT1R-Rluc8 and CCR2: 100 nM MCP-1
T3 construct: expressed in transfected cells; host or cells: HEK293FT
From the text: as §3

[6] = target: CCR2-Rluc8 and HA-tagged AT1R (Homo sapiens, UniProt P30556+P41597); details: HEK293FT cells, FIG. 7 bottom; for MCP-1-induced BRET, CCR2-Rluc8, β-arrestin2-Venus and HA-tagged AT1R: 100 nM MCP-1
AT1R-Rluc8 [7] = target: T1, AT1R-Rluc8; assay: Inositol phosphate (IP1) production (Example 6, top panel); type: cell-based; details: HEK293FT cells; antagonist 10 μM; 100 nM AngII; no CCR2; FIG. 8 top
Method: (§1) Data are shown as induced IP1 (arbitrary units).
(§2) The cells were then lysed by adding the HTRF® assay reagents, the Terbium Cryptate-labeled anti-IP1 antibody, and the d2-labeled IP1 analog, previously diluted in the lysis buffer containing 1% Triton X-100. The assay was incubated for 1 hour at room temperature, and Terbium Cryptate fluorescence and the time resolved FRET signal were measured 50 μs after excitation at 340, 620, and 665 nm, respectively, using the EnVision 2102 multilabel plate reader (PerkinElmer). Data are shown as induced IP1 (arbitrary units). The IP-One Tb kit is a competition assay and so induction of IP1 results in a decrease in absolute assay signal. Therefore, the induced IP1 (arbitrary units) is generated by subtracting the ligand-induced assay signal from the basal assay signal.

AT1R-Rluc8 and CCR2 [8] = target: T3, AT1R-Rluc8 and CCR2; assay: Inositol phosphate (IP1) production (Example 6, bottom panel); type: cell-based; details: HEK293FT cells, FIG. 8 bottom
Method: as §1, §2

diabetic nephropathy = details: patients; Lewis (1993); cited from earlier work

Chain of CCR2-Rluc8 and HA-tagged AT1R (P41597 whole entry, one chain of several): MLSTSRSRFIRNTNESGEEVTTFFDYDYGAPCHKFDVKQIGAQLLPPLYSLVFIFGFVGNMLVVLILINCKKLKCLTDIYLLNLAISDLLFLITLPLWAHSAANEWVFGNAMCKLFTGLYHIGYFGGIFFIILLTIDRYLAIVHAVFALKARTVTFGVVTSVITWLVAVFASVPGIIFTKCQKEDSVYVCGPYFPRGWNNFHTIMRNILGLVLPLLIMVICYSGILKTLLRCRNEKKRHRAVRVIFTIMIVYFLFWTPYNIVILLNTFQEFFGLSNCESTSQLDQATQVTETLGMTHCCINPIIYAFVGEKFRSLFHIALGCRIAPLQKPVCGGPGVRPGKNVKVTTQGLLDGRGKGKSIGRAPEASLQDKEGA
T2 sequence (P41597 whole entry, one chain of several): as above
T3 sequence (P41597 whole entry, one chain of several): as above

| Compound | inflammation in mouse models of multiple sclerosis, renal ischemia-reperfusion injury, ureter obstruction, diabetic nephropathy and a rat model of arthritis [1] | AngII-induced BRET response, AT1R-Rluc8 and β-arrestin2-Venus (AT1R-Rluc8 [2]) | MCP-1-induced BRET, AT1R-Rluc8, β-arrestin2-Venus and untagged CCR2 ([3]; antagonist 10 μM) | AngII-induced IP1 production, cells expressing AT1R-Rluc8 (AT1R-Rluc8 [4]) | AngII-induced IP1 production, cells co-expressing AT1R-Rluc8 and CCR2 (AT1R-Rluc8 and CCR2 [5]) | MCP-1-induced IP1 production, cells co-expressing AT1R-Rluc8 and CCR2 (AT1R-Rluc8 and CCR2 [5]) | MCP-1-induced BRET, CCR2-Rluc8, β-arrestin2-Venus and HA-tagged AT1R ([6]; antagonist 10 μM) | further results |
| --- | --- | --- | --- | --- | --- | --- | --- | --- |
| 3-oxygermylpropionic acid polymer [Propagermanium] | suppress inflammation |  |  |  |  |  |  | in vitro chemotactic migration of monocytes by MCP-1 (monocytes): specifically inhibit; also recorded: inhibits; MCP-1 binding (MCP-1): does not inhibit |
| CCO[C@H]1CN(C2CCC(O)(c3ccc4c(c3)OCO4)CC2)C[C@@H]1NC(=O)CNC(=O)c1cccc(C(F)(F)F)c1 (stereo partly drawn) [INCB3344] | suppress inflammation |  |  |  |  |  |  |  |
| CCCCC1=NC2(CCCC2)C(=O)N1Cc1ccc(-c2ccccc2-c2nn[nH]n2)cc1 [Irbesartan, 2-butyl-3-({4-[2-(2H-1,2,3,4-tetrazol-5-yl)phenyl]phenyl}methyl)-1,3-diazaspiro[4.4]non-1-en-4-one] |  | substantially blocked | not the MCP-1-induced BRET | substantially abolished | substantially inhibiting | partially reduced | not the MCP-1-promoted BRET signal | AngII-induced BRET, AT1R-Rluc8, β-arrestin2-Venus and untagged CCR2 ([3]; antagonist 10 μM, 100 nM AngII): substantially block; AngII-induced BRET, CCR2-Rluc8, β-arrestin2-Venus and HA-tagged AT1R ([6]; antagonist 10 μM, 100 nM AngII): partially blocked |
| Cc1ccc2c(c1)C1(CCN(CCc3nc(-c4ccccc4)oc3C)CC1)OC(=O)N2 [RS504393] | suppress inflammation | not RS504393 substantially blocked | partially blocked | not RS504393, substantially abolished | little effect | substantially and selectively inhibited | substantially inhibited | AngII-induced IP1 production, cells expressing AT1R-Rluc8 (AT1R-Rluc8 [7]): not RS504393, abolished; AngII-induced IP1 production, cells co-expressing AT1R-Rluc8 and CCR2 (AT1R-Rluc8 and CCR2 [8]; antagonist 10 μM, 100 nM AngII): little effect; MCP-1-induced IP1 response, cells co-expressing AT1R-Rluc8 and CCR2 (AT1R-Rluc8 and CCR2 [8]; antagonist 10 μM, 100 nM MCP-1): substantially and selectively inhibited; BRET response with combined treatment with MCP-1 and AngII, CCR2-Rluc8 and HA-tagged AT1R ([6]; antagonist(s) 10 μM, 100 nM MCP-1 and AngII): a substantial BRET signal remained |
| C[C@H](CS)C(=O)N1CCC[C@H]1C(=O)O [captopril] |  |  |  |  |  |  |  | progression of diabetic nephropathy (diabetic nephropathy): did not halt the progression of diabetic nephropathy in the vast majority of patients |
| MCP-1: Monocyte chemotactic protein-1, also known as monocyte chemoattractant protein-1 |  |  |  |  |  |  |  | agonist-induced BRET, AT1R-Rluc8, β-arrestin2-Venus and untagged CCR2 ([3]; 100 nM agonist): induced BRET increases to different degrees; agonist-stimulated IP1 response, cells co-expressing AT1R-Rluc8 and CCR2 (AT1R-Rluc8 and CCR2 [5]; 100 nM agonist): seems to stimulate a partial IP1 response; agonist-stimulated IP1 response, cells co-expressing AT1R-Rluc8 and CCR2 (AT1R-Rluc8 and CCR2 [8]; 100 nM agonist): seems to stimulate a partial IP1 response |
